According to patent US12173018B2, “Penicillin-binding protein inhibitors” (priority 2018, dated 2024):
In brackets after ≈: the same amount, converted by molar mass. Where two headings read alike, the source gives them in different places.

Legend:
E. coli ATCC 25922 = assay: Broth microdilution MIC, E. coli ATCC 25922; assay type: cell-based; conditions: Escherichia coli
How it was run: (§1)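 CLSI broth microdilution in cation-supplemented Mueller-Hinton broth; 2-fold compound dilutions inoculated at 5×10^5 CFU/mL from a 3-5 h log-phase culture. Plates incubated 16-20 hours at 37° C; MIC read visually as lowest concentration with no growth.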

E. coli AG100 = assay: Broth microdilution MIC, E. coli AG100 (wild-type parent); assay type: cell-based; conditions: Escherichia coli; wild-type parent E. coli AG100, broth microdilution; read-out: MIC E. coli AG100
How it was run: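 Starting inoculum of 5×10^5 CFU/mL, from colonies grown 3-5 h in Mueller-Hinton broth with divalent cations, added to two-fold compound dilution series.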

E. coli 901C = assay: microbe, parasite or virus in culture; assay type: cell-based; conditions: Escherichia coli; hyper-permeable E. coli 901C, broth microdilution; read-out: MIC E. coli 901C
How it was run: as §1

E. coli AG100A = assay: microbe, parasite or virus in culture; assay type: cell-based; conditions: Escherichia coli, read-out: MIC E. coli AG100A
How it was run: as §1

E. coli D22 = assay: microbe, parasite or virus in culture; assay type: cell-based; conditions: Escherichia coli; hyper-permeable E. coli D22, broth microdilution; read-out: MIC E. coli D22
How it was run: as §1

K. pneumoniae SI-117 = assay: microbe, parasite or virus in culture; assay type: cell-based; conditions: Klebsiella pneumoniae, SI117, read-out: MIC K. pneumoniae SI-117
How it was run: as §1

K. pneumoniae UMM = assay: microbe, parasite or virus in culture; assay type: cell-based; conditions: Klebsiella pneumoniae; K. pneumoniae UMM producing SHV-5 and KPC-2; read-out: MIC K. pneumoniae UMM
How it was run: as §1

[1] = system: P. aeruginosa (ΔmexAB-oprM); assay: microbe, parasite or virus in culture; assay type: cell-based; conditions: Pseudomonas aeruginosa, read-out: MIC P. aeruginosa ΔmexAB-OprM
How it was run: as §1

P. aeruginosa ATCC 35151 = assay: microbe, parasite or virus in culture; assay type: cell-based; conditions: Pseudomonas aeruginosa, ATCC35151; hyper-permeable P. aeruginosa ATCC 35151; read-out: MIC P. aeruginosa ATCC 35151
How it was run: as §1

K. pneumoniae 848844 = assay: microbe, parasite or virus in culture; assay type: cell-based, Klebsiella pneumoniae; conditions: Klebsiella pneumoniae; K. pneumoniae 848844 producing SHV-11 and KPC-2; read-out: MIC K. pneumoniae 848844
How it was run: as §1

P. aeruginosa PAO1 = assay: Broth microdilution MIC, P. aeruginosa PAO1; assay type: cell-based; conditions: Pseudomonas aeruginosa
Method: (§2) To determine the ability of test compounds to potentiate the inhibition of the growth of bacterial strains, classic cell based broth microdilution minimum inhibitory concentration (MIC) assays were employed. MIC assays are performed according to CLSI methods except where otherwise noted (CLSI, 2011 and CLSI, 2009). The reference type strain E. coli ATCC 25922, the wild-type parent strain E. coli AG100, the hyper-permeable E. coli 901C and E. coli D22 and the E. coli AG100A strain lacking the acrAB efflux pump encoding genes were used to determine the ability of the PBP inhibitors to penetrate the outer membrane of gram-negative bacteria and inhibit bacterial growth. […] The P. aeruginosa PAO1, P. aeruginosa ATCC 27853 and A. baumannii ATCC 19606, along with the hyper-permeable P. aeruginosa ATCC 35151 and an engineered efflux pump-compromised strain of P. aeruginosa (ΔmexAB-oprM) were used to determine the ability of PBP inhibitors to penetrate the outer membrane of P. aeruginosa and A. baumannii and assess antibacterial activity against these important gram-negative organisms.
(§3) Briefly, cryo-preserved bacterial cultures of challenge strains are streaked for isolation on appropriate agar medium, in this case Mueller Hinton II agar. Following incubation to allow growth of the colonies, plates are sealed with parafilm and stored refrigerated for up to two weeks. For preparation of assay inoculum and to ensure low variability, at least 5 colonies are picked from the agar plates with an inoculating loop and aseptically transferred to a culture tube containing 3 mL of Mueller-Hinton Broth (supplemented with divalent cations to required levels based on Manufacturers' certification). The broth culture is grown for 3-5 hours at 37° C. with shaking at 200 rpm. Meanwhile, 2-fold serial dilutions of test compounds are conducted in a 96 well plate with a final volume of 75 μL per well at 2-fold the final desired concentration. After the dilution plates are set up the growing cultures are then diluted in a cuvette containing MH II broth and the optical density is measured at 600 nm. The Inoculum is diluted such that 75 μL of this culture in Mueller-Hinton Broth results in a starting bacterial concentration of 5×10^5 CFU/mL when added to the dilution plates. The plates are incubated for 16-20 hours at 37° C. The MIC values are read visually as the lowest concentration well with no bacterial growth.

A. baumannii ATCC 19606 = assay: Broth microdilution MIC, A. baumannii ATCC 19606; assay type: cell-based; conditions: Acinetobacter baumannii
Method: as §2, §3

[2] = system: N. gonorrhoeae ATCC 49226; assay: Liquid broth MIC, N. gonorrhoeae ATCC 49226; assay type: cell-based; conditions: Neisseria gonorrhoeae, ATCC49226; N. gonorrhoeae ATCC 49226, liquid broth; read-out: Minimum Inhibitory Concentration, N. gonorrhoeae ATCC 49226
Method: (§4) Additional antibacterial testing of the series was performed in wild-type reference strains of N. gonorrhoeae (ATCC 49226, FA1090, WHO F and FA19). Liquid broth-based assays were used for antibacterial testing of PBP inhibitors in Neisseria gonorrhoeae. Briefly, cryo-preserved bacterial cultures of clinical strains are streaked for isolation on GC Base agar (BD #228950 at 36 g/L autoclaved at 121° C. for 20 minutes to sterilize) with 1% Kellogg's supplement (40 g glucose, 0.5 g glutamine, 0.05 g ferric nitrate and 2 mg cocarboxylase per 100 mL deionized water filter sterilized through 0.2 μm syringe filters). Following incubation at 36° C. and 5% CO2 to allow growth of colonies, strains are aseptically sub-cultured from original agar plate onto 3 agar plates per strain 24 hours before inoculum preparation. 2-fold serial dilutions of test compounds are conducted in a 96 well plate with a final volume of 150 μL per well at 4/3-fold the final desired concentration. For preparation of assay inoculum, a direct suspension is prepared by aseptically swabbing all colonies from sub-cultured agar plates into culture tubes containing 2 mL of fresh GC broth with […]. After the dilution plates are set up, direct suspensions are then diluted in a cuvette containing GC broth (15 g proteose peptone 43, 1 g corn starch, 4 g dipotassium phosphate, 1 g monopotassium phosphate and 5 g sodium chloride per liter of deionized water are mixed on a stir plate for 20 minutes, pH adjusted to 7.2+/−0.2 pH units with 1 N HCl, centrifuged at 10,000×g for 20 minutes to pellet undissolved corn starch and then autoclaved at 121° C. for 20 minutes to sterilize) and the optical density is measured at 600 nm. Inocula are diluted such that 50 μL of this culture in […] results in a starting bacterial concentration of 5×10^5 CFU/mL when added to the dilution plates. The plates are incubated 40-42 hours at 36° C. and 5% CO2. The MIC is read visually as the lowest concentration well with no bacterial growth.

N. gonorrhoeae FA1090 = assay: Liquid broth MIC, N. gonorrhoeae FA1090; assay type: cell-based; conditions: Neisseria gonorrhoeae; N. gonorrhoeae FA1090, liquid broth; read-out: Minimum Inhibitory Concentration, N. gonorrhoeae FA1090
Method: as §4

N. gonorrhoeae WHO F = assay: Liquid broth MIC, N. gonorrhoeae WHO F; assay type: cell-based; conditions: Neisseria gonorrhoeae; N. gonorrhoeae WHO F, liquid broth; read-out: Minimum Inhibitory Concentration, N. gonorrhoeae WHO F
Method: as §4

N. gonorrhoeae FA19 = assay: Liquid broth MIC, N. gonorrhoeae FA19; assay type: cell-based; conditions: Neisseria gonorrhoeae; N. gonorrhoeae FA19, liquid broth; read-out: Minimum Inhibitory Concentration, N. gonorrhoeae FA19
Method: as §4

E. coli PBP3 = E. coli PBP3 (Escherichia coli (strain K12), UniProt P0AD68); assay: E. coli PBP3 Bocillin-FL fluorescence polarization competition binding assay
How it was run: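 This was a fluorescence polarization competition with fluorescent penicillin Bocillin-FL (0.1 μM final), read at 490/520 nm for 60 min immediately after its addition. The buffer was Hepes pH 8.0 with 300 mM NaCl and 5% glycerol, containing 1.5 μM PBP and test inhibitor up to 1000 μM. Potency is expressed as EC50 for reducing probe binding.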

[3] = system: engineered strain of Escherichia coli harboring CTX-M15; assay: microbe, parasite or virus in culture; assay type: cell-based; conditions: Escherichia coli, read-out: Microbiological Activity (MIC in mg/L), E. coli DH5α/pLBII-CTX-M15, engineered strain producing CTX-M15
[4] = ATCC25922, read-out: MIC E. coli 25922
[5] = PAO1, read-out: MIC P. aeruginosa PAO1
[6] = ATCC19606, read-out: MIC A. baumannii ATCC 19606

E. coli PBP3, sequence (P0AD68 whole entry): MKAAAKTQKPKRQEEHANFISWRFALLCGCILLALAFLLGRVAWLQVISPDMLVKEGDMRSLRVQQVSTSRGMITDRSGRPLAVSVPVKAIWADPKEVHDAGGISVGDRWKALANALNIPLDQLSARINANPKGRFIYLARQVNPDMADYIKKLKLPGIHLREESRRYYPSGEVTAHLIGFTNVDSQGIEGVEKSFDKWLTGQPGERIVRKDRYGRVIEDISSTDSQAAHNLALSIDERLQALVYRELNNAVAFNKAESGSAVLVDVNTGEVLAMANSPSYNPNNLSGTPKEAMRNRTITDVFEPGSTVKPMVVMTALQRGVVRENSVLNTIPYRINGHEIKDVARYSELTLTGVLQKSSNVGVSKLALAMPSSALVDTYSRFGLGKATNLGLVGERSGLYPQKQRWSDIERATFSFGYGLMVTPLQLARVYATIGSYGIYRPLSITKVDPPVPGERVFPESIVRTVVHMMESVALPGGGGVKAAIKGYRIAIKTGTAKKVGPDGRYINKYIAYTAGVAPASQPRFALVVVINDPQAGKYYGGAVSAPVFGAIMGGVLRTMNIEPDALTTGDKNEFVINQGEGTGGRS

SMILES: NS(=O)(=O)c1ccc([C@@H](NC(=O)N2CCN(CCF)C(=O)C2=O)C(=O)N[C@H]2Cc3cccc(C(=O)O)c3OB2O)cc1O [Example 170, (R)-3-((R)-2-(4-(2-fluoroethyl)-2,3-dioxopiperazine-1-carboxamido)-2-(3-hydroxy-4-sulfamoylphenyl)acetamido)-2-hydroxy-3,4-dihydro-2H-benzo[e][1,2]oxaborinine-8-carboxylic acid]
- MIC (E. coli ATCC 25922; [4]): 8 to 16 µg/mL
- MIC (E. coli AG100): 8 to 16 µg/mL
- MIC (E. coli 901C): < 0.25 µg/mL
- MIC (E. coli AG100A): 2 to 4 µg/mL
- MIC (E. coli D22): 0.5 to 1 µg/mL
- MIC (K. pneumoniae SI-117): 32 to 64 µg/mL
- MIC (K. pneumoniae UMM): 8 to 16 µg/mL
- MIC [1]: 8 to 16 µg/mL
- MIC (P. aeruginosa ATCC 35151): < 0.25 µg/mL
- MIC (K. pneumoniae 848844): 32 to 64 µg/mL
- MIC (P. aeruginosa PAO1; [5]): > 128 µg/mL
- MIC (A. baumannii ATCC 19606; [6]): > 128 µg/mL
- MIC [2]: 4 to 8 µg/mL (≈ 6.44 to 12.9 µM)
- MIC (N. gonorrhoeae FA1090): 0.25 to 0.5 µg/mL (≈ 0.402 to 0.805 µM)
- MIC (N. gonorrhoeae WHO F): < 0.125 µg/mL
- MIC (N. gonorrhoeae FA19): 4 to 8 µg/mL (≈ 6.44 to 12.9 µM)

SMILES: CCN1CCN(C(=O)NC(C(=O)N[C@H]2Cc3ccc(F)c(C(=O)O)c3OB2O)c2ccc(O)cn2)C(=O)C1=O (stereo partly drawn) [Example 128, (3R)-3-(2-(4-ethyl-2,3-dioxopiperazine-1-carboxamido)-2-(5-hydroxypyridin-2-yl)acetamido)-7-fluoro-2-hydroxy-3,4-dihydro-2H-benzo[e][1,2]oxaborinine-8-carboxylic acid]
- EC50 (E. coli PBP3): 30 to 500 µM
- MIC (E. coli ATCC 25922; ATCC25922, E. coli ATCC 25922, broth microdilution, read-out: MIC E. coli 25922): 32 to 64 µg/mL
- MIC (E. coli AG100): 8 to 16 µg/mL
- MIC (E. coli 901C): 0.5 to 1 µg/mL
- MIC (E. coli AG100A): 2 to 4 µg/mL
- MIC (E. coli D22): 2 to 4 µg/mL
- MIC (K. pneumoniae SI-117): 8 to 16 µg/mL
- MIC (K. pneumoniae UMM): 8 to 16 µg/mL
- MIC [1]: 8 to 16 µg/mL
- MIC (P. aeruginosa ATCC 35151): 0.5 to 1 µg/mL
- MIC (K. pneumoniae 848844): 32 to 64 µg/mL
- MIC (P. aeruginosa PAO1; P. aeruginosa PAO1, broth microdilution, read-out: MIC P. aeruginosa PAO1): > 128 µg/mL
- MIC (A. baumannii ATCC 19606; ATCC19606, A. baumannii ATCC 19606, broth microdilution, read-out: MIC A. baumannii ATCC 19606): > 128 µg/mL

SMILES: CS(=O)(=O)N1CCN(C(=O)NC(C(=O)N[C@H]2Cc3cccc(C(=O)O)c3OB2O)c2ccc(O)c(O)c2Cl)C1=O (stereo partly drawn) [Example 58, (3R)-3-(2-(2-chloro-3,4-dihydroxyphenyl)-2-(3-(methylsulfonyl)-2-oxoimidazolidine-1-carboxamido)acetamido)-2-hydroxy-3,4-dihydro-2H-benzo[e][1,2]oxaborinine-8-carboxylic acid]
- MIC (E. coli ATCC 25922; [4]): 32 to 64 µg/mL
- MIC (E. coli AG100): 32 to 64 µg/mL
- MIC (E. coli 901C): 2 to 4 µg/mL
- MIC (E. coli AG100A): 8 to 16 µg/mL
- MIC (E. coli D22): 8 to 16 µg/mL
- MIC (K. pneumoniae SI-117): > 128 µg/mL
- MIC (K. pneumoniae UMM): 8 to 16 µg/mL
- MIC [1]: < 0.25 µg/mL
- MIC (P. aeruginosa ATCC 35151): < 0.25 µg/mL
- MIC (K. pneumoniae 848844): 8 to 16 µg/mL
- MIC (P. aeruginosa PAO1; [5]): 8 to 16 µg/mL
- MIC (A. baumannii ATCC 19606; [6]): 2 to 4 µg/mL
- MIC [2]: 4 to 8 µg/mL (≈ 6.7 to 13.4 µM)
- MIC (N. gonorrhoeae FA1090): 4 to 8 µg/mL (≈ 6.7 to 13.4 µM)
- MIC (N. gonorrhoeae WHO F): 1 to 2 µg/mL (≈ 1.68 to 3.35 µM)
- MIC (N. gonorrhoeae FA19): 4 to 8 µg/mL (≈ 6.7 to 13.4 µM)
- MIC [3]: 32 to 64 mg/L (≈ 53.6 to 107 µM)
